According to patent publication EP1157002B1, “1,2,3,4-TETRAHYDRO-1-NAPHT[…] USEFUL IN THERAPY” (Pfizer Limited, priority 1999, dated 2000):
pIC50: −log10 of the molar value. Counter-ions that a name gives are not always drawn. Like-named read-outs stand apart in the source and are kept apart here.

Target: T1, human serotonin transporter (hSERT) (Homo sapiens, UniProt P31645)
T1 construct: expressed in transfected cells; host or cells: HEK-293 (human embryonic kidney cells), stably transfected
Assay: Test A: uptake of 3H-serotonin into human embryonic kidney cells (HEK-293) expressing the human serotonin transporter
Type: cell-based
Experimental: Uptake of ^3H-biogenic amines into human embryonic kidney cells expressing the human serotonin (5-HT), noradrenalin or dopamine transporter
Human embryonic kidney cells (HEK-293) stably transfected with either the human serotonin transporter (hSERT), noradrenalin transporter (hNET) or dopamine transporter (hDAT) were cultured under standard cell culture techniques (cells were grown at 37°C and 5% CO2 in DMEM-culture media (supplemented with 10% dialysed foetal calf serum (FCS), 2mM 1-glutamine and 250µg/ml geneticin)). Cells were harvested for the assay to yield a cell suspension of 750,000 cells/ml.
Assays were carried out in 96-well filter bottom plates. Cells (7500 cells/assay well) were pre-incubated in standard assay buffer containing either test compound, standard inhibitor or compound vehicle (1% DMSO) for 5 minutes. Reactions were started by addition of either ^3H-Serotonin, ^3H-Noradrenaline or ^3H-Dopamine substrates. All reactions were carried out at room temperature in a shaking incubator. Incubation times were 5 minutes for the hSERT and hDAT assays and 15 minutes for the hNET assay. Reactions were terminated by removal of the reaction mixture using a vacuum manifold followed by rapid washing with ice cold assay buffer. The quantity of ^3H-substrate incorporated into the cells was then quantified.
Assay plates were dried in a microwave oven, scintillation fluid added, and radioactivity measured. Potency of test compounds was quantified as IC50 values (concentration of test compound required to inhibit the specific uptake of radiolabelled substrate into the cells by 50%).
Standard Assay Buffer Composition: • Trizma hydrochloride (26mM) • NaCl (124mM) • KCl (4.5mM) • KH2PO4 (1.2mM) • MgCl2.6H2O (1.3mM) • Ascorbic acid (1.136mM) • Glucose (5.55mM) • pH 7.40 • CaCl2 (2.8mM) • Pargyline (100µM)
Note: The pH of the buffer was adjusted to 7.40 with 1M NaOH before addition of CaCl2 and pargyline.

[1] = inhibition of the up-take of serotonin by human serotonin transporters, HEK-293 hSERT cells, 3H-5HT (50nM), incubation 5 minutes, room temperature, read-out: IC50 value

T1 sequence (P31645 whole entry): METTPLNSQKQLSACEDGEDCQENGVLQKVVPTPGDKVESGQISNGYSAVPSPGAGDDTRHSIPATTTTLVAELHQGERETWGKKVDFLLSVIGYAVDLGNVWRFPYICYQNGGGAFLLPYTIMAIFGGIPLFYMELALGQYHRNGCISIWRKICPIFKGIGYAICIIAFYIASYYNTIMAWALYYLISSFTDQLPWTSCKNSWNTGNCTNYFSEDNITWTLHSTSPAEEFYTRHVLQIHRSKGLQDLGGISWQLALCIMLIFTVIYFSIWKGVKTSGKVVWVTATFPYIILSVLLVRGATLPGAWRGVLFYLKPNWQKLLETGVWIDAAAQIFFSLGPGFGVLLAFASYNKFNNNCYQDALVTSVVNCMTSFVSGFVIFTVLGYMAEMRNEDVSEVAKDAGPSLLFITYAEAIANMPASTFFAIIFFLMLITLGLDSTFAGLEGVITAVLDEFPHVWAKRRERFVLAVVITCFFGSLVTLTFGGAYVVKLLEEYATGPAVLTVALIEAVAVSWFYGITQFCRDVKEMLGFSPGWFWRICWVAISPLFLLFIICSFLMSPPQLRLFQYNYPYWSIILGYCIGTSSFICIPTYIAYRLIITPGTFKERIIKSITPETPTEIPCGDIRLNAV

Structure (SMILES) | pIC50 [1] | pIC50
CN[C@H]1CC[C@@H](c2ccc(Cl)c(Cl)c2)c2ccc(CNC(N)=O)cc21 [Example 37, Cis-(1S)-N-methyl-7-((N-aminocarboxy)aminomethyl)-4-(3,4-dichlorophenyl)-1,2,3,4-tetrahydro-1-naphthalenamine hydrochloride] | ≥ 7.00 | 
CN[C@H]1CC[C@@H](c2ccc(Cl)c(Cl)c2)c2ccc(-c3ncn[nH]3)cc21 [Example 55, Cis-(1S)-N-methyl-7-(3-(1,2,4-triazolyl))-4-(3,4-dichlorophenyl)-1,2,3,4-tetrahydro-1-naphthalenamine hydrochloride] | ≥ 7.00 | 
CN[C@H]1CC[C@@H](c2ccc(Cl)c(Cl)c2)c2ccc(-c3ncnn3C)cc21 [Example 56, Cis-(1S)-N-methyl-7-(3-(N(2)methyl-1,2,4-triazolyl)-4-(3,4-dichlorophenyl)-1,2,3,4-tetrahydro-1-naphthalenamine hydrochloride] | ≥ 7.00 | 
CN[C@H]1CC[C@@H](c2ccc(Cl)c(Cl)c2)c2ccc(CS(C)(=O)=O)cc21 [Example 74, Cis-(1S)-N-methyl-7-((methylsulphonyl)methyl)-4-(3,4-dichlorophenyl)-1,2,3,4-tetrahydro-1-naphthalenamine] |  | ≥ 7.00
